Measured values taken from patent US4176182A, “Sulfamoyl derivatives of 8-β-aminomethylergoline” (priority 1976, dated 1979).
≈ marks a conversion by molar mass, not a printed value. Read-outs that look alike come from different tables or passages of the source.

Key:
LD50 in the mouse, iv = settings: in vivo
[1] = system: 5-hydroxytryptamine (serotonin) induced contractions, uterus of female rat; test: inhibition of 5-hydroxytryptamine (serotonin)-induced contractions in uterus of female rat, in vitro; type: cell-based; settings: for EC50: 5-HT-induced contractions, rat treated with estradiol dipropionate 20 hours before; for times more active than the comparison compound as to the anti-5 HT activity: comparison compound methergoline
Description: (§1) These novel compounds show anti-serotonin activity both peripherally and on the central nervous system. This activity had been tested "in vitro" through the inhibition of the contractions as induced by 5-hydroxytryptamine (serotonin) (5 HT) in the uterus of a female rat, which 20 hours before the test had been treated with estradiol dipropionate (see Ersparmer, Archiv. int. Pharmacodyn. 93, 293, 1953), and "in vivo" on the clones induced by tryptamine (40 mg/kg i.v.) in the rat (S. J. Corne et al., Brit. J. Pharmacol., 20, 106, 1963).

[2] = system: ileus of guinea pig (BaCl2); test: spasmolytic activity, ileus of guinea pig, BaCl2, in vitro; type: cell-based; settings: for EC50: Cavia porcellus, spasmolytic activity, in vitro, no quantity or unit printed in this column head; for times less active as regards the spasmolytic activity: vs comparison compound (papaverine as spasmolytic agent)
[3] = system: clones induced by tryptamine; test: clones induced by tryptamine in the rat, in vivo; settings: sc, read-out: Clones induced by Tryptamine ED50
Description: as §1

[4] = system: seminal vesicle of guinea pig; test: adrenolytic activity, seminal vesicle of guinea pig, in vitro; type: cell-based; settings: for EC50: Cavia porcellus, adrenolytic activity, in vitro; for times less active as regards the adrenolytic activity: vs comparison compound (dihydroergocristine as alpha-blocking agent)

Row | SMILES | LD50 (LD50 in the mouse, iv) [mg/kg] | EC50 [1] [ng/mL] | EC50 [2] [ng/mL] | ED50 ([3]; rat, tryptamine 40 mg/kg i.v.) [mg/kg] | EC50 [4] [ng/mL] | times more active than the comparison compound as to the anti-5 HT activity [1] [times] | times less active as regards the spasmolytic activity [2] [times] | times less active as regards the adrenolytic activity [4] [times] | ED50 ([3]; Rattus norvegicus) [mg/kg]
1 | CN1C[C@H](CNS(=O)(=O)N2CCOCC2)C[C@@H]2c3cccc4[nH]cc(c34)C[C@H]21 [Compound 10] | 51 | 5 (≈ 0.0124 µM) | 5000 (≈ 12.4 µM) | 7.2 | 70 (≈ 0.173 µM) | – | – | – | –
2 | CN1C[C@H](CNS(=O)(=O)N2CCCCC2)C=C2c3cccc4c3c(cn4C)C[C@H]21 [Compound 12, 1-(1,6-dimethyl-8β-didehydroergolenylmethyl)-3-piperidino-sulfonamide] | 20 | 0.02 (≈ 4.82e-05 µM) | 15000 (≈ 36.2 µM) | 0.046 | 1000 (≈ 2.41 µM) | 250 | 2 | 25 | –
3 | CN1C[C@H](CNC(=O)OCc2ccccc2)C[C@@H]2c3cccc4c3c(cn4C)C[C@H]21 [Methergoline, methergoline, reference compound] | 21.2 | 5 (≈ 0.0124 µM) | – | – | – | – | – | – | 0.062
4 | CN1C[C@H](CNS(=O)(=O)N2CCCCC2)C=C2c3cccc4[nH]cc(c34)C[C@H]21 [Compound 5, 1-(6-methyl-8β-didehydroergolenylmethyl)-3-piperidino-sulfonamide] | 45 | 3 (≈ 0.00749 µM) | 7500 (≈ 18.7 µM) | 0.51 | 200 (≈ 0.499 µM) | – | – | – | –
5 | CC(C)[C@@]1(NC(=O)[C@@H]2C[C@@H]3c4cccc5[nH]cc(c45)C[C@H]3N(C)C2)O[C@@]2(O)[C@@H]3CCCN3C(=O)[C@H](Cc3ccccc3)N2C1=O [Dihydroergocristine methansulfonate, dihydroergocristine, reference compound] | 70 | – | – | – | 8 | – | – | – | –
6 | CN1C[C@H](CNS(=O)(=O)N2CCOCC2)C=C2c3cccc4[nH]cc(c34)C[C@H]21 [Compound 9, 1-(6-methyl-8β-didehydroergolenylmethyl)-3-morpholino-sulfonamide] | 34.5 | 5 (≈ 0.0124 µM) | 15000 (≈ 37.3 µM) | 4.25 | 100 (≈ 0.248 µM) | – | – | – | –
7 | CN1C[C@H](CNS(=O)(=O)N2CCCC2)C=C2c3cccc4c3c(cn4C)C[C@H]21 [Compound 11, 1-(1,6-dimethyl-8β-didehydroergolenylmethyl)-3-pyrrolidine-sulfonamide] | 22.3 | 0.2 (≈ 0.000499 µM) | 15000 (≈ 37.4 µM) | 0.016 | 1000 (≈ 2.5 µM) | 25 | 2 | 25 | –
8 | CN1C[C@H](CNS(=O)(=O)N2CCCCCC2)C=C2c3cccc4[nH]cc(c34)C[C@H]21 [Compound 7, 1-(1H-hexahydroazepine)-3-(6-methyl-8β-didehydroergolenyl-methyl)-sulfonamide] | 50.2 | 7 (≈ 0.0169 µM) | 5000 (≈ 12.1 µM) | 2.47 | 800 (≈ 1.93 µM) | – | – | – | –
9 | CN1C[C@H](CNS(=O)(=O)N(C)C)C[C@@H]2c3cccc4[nH]cc(c34)C[C@H]21 [Compound 2] | 22.5 | 5 (≈ 0.0138 µM) | 10000 (≈ 27.6 µM) | 10 | 1500 (≈ 4.14 µM) | – | – | – | –
10 | COc1ccc(Cc2nccc3cc(OC)c(OC)cc23)cc1OC [Papaverin, papaverine, reference compound] | 38 | – | 8900 (≈ 26.2 µM) | – | – | – | – | – | –
